Reference: US20260265329A1, “POLYPEPTIDE AND DERIVATIVE THEREOF, COMPOSITION, AND USE THEREOF” (HANGZHOU SCIWIND BIOSCIENCES CO., LTD., priority 2023, published 2026)
Starred links: 1 amine or outer side, 2 acyl side, 3 side chain; linkers in the order of their positions; H or OH if unused. Non-standard residues stand in square brackets, D forms with d. Residues, ends and D or L forms follow the SMILES beside them. *: point of attachment. C20 diacid = O=C(O)CCCCCCCCCCCCCCCCCCC(=O)*; γGlu = O=C(O)[C@H](CCC(=O)[*:2])N[*:1]; Hyp = O=C(O)[C@@H]1C[C@@H](O)CN1; NMeD = CN[C@@H](CC(=O)O)C(=O)O

What was measured:
[1] = Heat accelerated stability assay, 40° C., detection on 10 d and 20 d; assay type: physicochemical; conditions: 1 mg/mL, pH about 7.4, 40° C.
Description: The derivatives (1 mg/mL) were mixed with sodium dihydrogen phosphate (1.42 mg/mL) and dissolved in ultrapure water. After adjusting pH to about 7.4 with hydrochloric acid/sodium hydroxide, the solution was filtered into a sterilized vial in a clean bench using a 0.22 μm sterile filter. The vial was then capped and placed into the stability test chamber at 40° C. Detections were made on 10d and 20d, and during the assay changes in the characteristics and properties of the polypeptides were observed and recorded. The sample was then centrifuged for 3 min at 10000 rpm at 4° C., and the supernatant was transferred to a liquid phase sample vial for detecting the concentration and purity of the polypeptides using liquid phase chromatography described as below.
Flow rate: 1.0 mL/min; Autosampler temperature: 25° C.; Column temperature: 25° C.; Detection wavelength: 214 nm; Mobile phase A: 110 mM phosphate buffer (pH 5.8): ACN=90:10; Mobile phase B: ACN: IPA: H2O=85:5:10; and Gradient of elution listed in Table 6: […]

[2] = biological target: T1, human amylin receptors (Homo sapiens, UniProt O60896+P30988); assay: Luciferase assay in stably transfected amylin receptor/CRE-luc CHO cell line; assay type: cell-based; conditions: for Relative activity: EC50 ratio of Cagrilintide to the compound, Cagrilintide 100%; for EC50: amylin receptor/CRE-luc CHO cells, 24 hours incubation, luminescence
T1 construct: host or cells: CHO-K1/Ga15/AMY3 cells, further stably transfected with a CRE-luciferase plasmid
T1 sequence (P30988 25-474): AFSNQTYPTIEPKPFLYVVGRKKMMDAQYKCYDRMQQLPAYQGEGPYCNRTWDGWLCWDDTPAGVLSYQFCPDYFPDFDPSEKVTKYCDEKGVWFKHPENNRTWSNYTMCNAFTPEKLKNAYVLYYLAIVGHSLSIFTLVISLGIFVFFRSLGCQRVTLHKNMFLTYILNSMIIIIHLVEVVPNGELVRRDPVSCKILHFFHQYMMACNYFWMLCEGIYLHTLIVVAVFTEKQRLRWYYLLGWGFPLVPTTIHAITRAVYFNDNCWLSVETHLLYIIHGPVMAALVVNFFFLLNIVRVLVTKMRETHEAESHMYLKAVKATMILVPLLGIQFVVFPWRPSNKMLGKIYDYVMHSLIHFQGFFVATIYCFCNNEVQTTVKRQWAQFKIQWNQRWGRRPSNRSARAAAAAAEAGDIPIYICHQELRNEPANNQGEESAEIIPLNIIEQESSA
T1 sequence (O60896 24-148 partner): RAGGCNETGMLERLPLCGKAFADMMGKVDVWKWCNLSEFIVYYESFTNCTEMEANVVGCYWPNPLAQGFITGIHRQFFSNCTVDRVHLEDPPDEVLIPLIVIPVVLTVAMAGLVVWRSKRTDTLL

Compound	Reduction in purity, 10 d [1]	Relative activity [2]	EC50 [2]	Reduction in purity, 20 d [1]
CC[C@H](C)[C@H](NC(=O)[C@@H]1CCCN1C(=O)[C@H](CCCCN)NC(=O)[C@H](CC(C)C)NC(=O)[C@H](CC(N)=O)NC(=O)[C@H](CCC(=O)O)NC(=O)[C@H](CO)NC(=O)[C@H](CO)NC(=O)[C@H](Cc1c[nH]cn1)NC(=O)[C@H](CCCNC(=N)N)NC(=O)[C@H](CC(C)C)NC(=O)[C@H](Cc1ccccc1)NC(=O)[C@H](CC(=O)O)NC(=O)[C@H](C)NC(=O)[C@H](CC(C)C)NC(=O)[C@H](CCCNC(=N)N)NC(=O)[C@H](CCC(N)=O)NC(=O)[C@@H](NC(=O)[C@H](C)NC(=O)[C@H](C)NC(=O)[C@@H](NC(=O)[C@H](CO)NC(=O)[C@H](CC(C)C)NC(=O)[C@H](CCC(N)=O)NC(=O)[C@H](CO)NC(=O)[C@H](C)NC(=O)CC[C@H](NC(=O)CCCCCCCCCCCCCCCCCCC(=O)O)C(=O)O)[C@@H](C)O)[C@@H](C)O)C(=O)N[C@@H](CC(C)C)C(=O)N1CCC[C@H]1C(=O)N1CCC[C@H]1C(=O)N[C@H](C(=O)N[C@@H](CC(N)=O)C(=O)N[C@H](C(=O)NCC(=O)N[C@@H](CO)C(=O)N[C@@H](CC(N)=O)C(=O)N[C@H](C(=O)N1C[C@H](O)C[C@H]1C(N)=O)[C@@H](C)O)C(C)C)[C@@H](C)O [M47] ({C20 diacid-γGlu}-ASQLSTAATQRLADFLRHSSENLKPILPPTNVGSNT[Hyp]-NH2)	9.25%	113%	0.08 nM	–
CC[C@H](C)[C@H](NC(=O)[C@@H]1CCCN1C(=O)[C@H](CCCCN)NC(=O)[C@H](CC(C)C)NC(=O)[C@H](CC(=O)O)N(C)C(=O)[C@H](CC(N)=O)NC(=O)[C@H](CO)NC(=O)[C@H](CO)NC(=O)[C@H](Cc1c[nH]cn1)NC(=O)[C@H](CCCNC(=N)N)NC(=O)[C@H](CC(C)C)NC(=O)[C@H](Cc1ccccc1)NC(=O)[C@H](CC(=O)O)NC(=O)[C@H](C)NC(=O)[C@H](CC(C)C)NC(=O)[C@H](CCCNC(=N)N)NC(=O)[C@H](CCC(N)=O)NC(=O)[C@@H](NC(=O)[C@H](C)NC(=O)[C@H](C)NC(=O)[C@@H](NC(=O)[C@H](CO)NC(=O)[C@H](CC(C)C)NC(=O)[C@H](CCC(N)=O)NC(=O)[C@H](CO)NC(=O)[C@H](C)NC(=O)CC[C@H](NC(=O)CCCCCCCCCCCCCCCCCCC(=O)O)C(=O)O)[C@@H](C)O)[C@@H](C)O)C(=O)N[C@@H](CC(C)C)C(=O)N1CCC[C@H]1C(=O)N1CCC[C@H]1C(=O)N[C@H](C(=O)N[C@@H](CC(N)=O)C(=O)N[C@H](C(=O)NCC(=O)N[C@@H](CO)C(=O)N[C@@H](CC(N)=O)C(=O)N[C@H](C(=O)N1C[C@H](O)C[C@H]1C(N)=O)[C@@H](C)O)C(C)C)[C@@H](C)O [M45] ({C20 diacid-γGlu}-ASQLSTAATQRLADFLRHSSN[NMeD]LKPILPPTNVGSNT[Hyp]-NH2)	6.54%	129%	0.07 nM	–
CC[C@H](C)[C@H](NC(=O)[C@@H]1CCCN1C(=O)[C@H](CCCCN)NC(=O)[C@H](CC(C)C)NC(=O)[C@H](CC(N)=O)NC(=O)[C@H](CCCCN)NC(=O)[C@H](CO)NC(=O)[C@H](CO)NC(=O)[C@H](Cc1c[nH]cn1)NC(=O)[C@H](CCCNC(=N)N)NC(=O)[C@H](CC(C)C)NC(=O)[C@H](Cc1ccccc1)NC(=O)[C@H](CC(=O)O)NC(=O)[C@H](C)NC(=O)[C@H](CC(C)C)NC(=O)[C@H](CCCNC(=N)N)NC(=O)[C@H](CCC(N)=O)NC(=O)[C@@H](NC(=O)[C@H](C)NC(=O)[C@H](C)NC(=O)[C@@H](NC(=O)[C@H](CO)NC(=O)[C@H](CC(C)C)NC(=O)[C@H](CCC(N)=O)NC(=O)[C@H](CO)NC(=O)[C@H](C)NC(=O)CC[C@H](NC(=O)CCCCCCCCCCCCCCCCCCC(=O)O)C(=O)O)[C@@H](C)O)[C@@H](C)O)C(=O)N[C@@H](CC(C)C)C(=O)N1CCC[C@H]1C(=O)N1CCC[C@H]1C(=O)N[C@H](C(=O)N[C@@H](CC(N)=O)C(=O)N[C@H](C(=O)NCC(=O)N[C@@H](CO)C(=O)N[C@@H](CC(N)=O)C(=O)N[C@H](C(=O)N1C[C@H](O)C[C@H]1C(N)=O)[C@@H](C)O)C(C)C)[C@@H](C)O [M53] ({C20 diacid-γGlu}-ASQLSTAATQRLADFLRHSSKNLKPILPPTNVGSNT[Hyp]-NH2)	11.82%	200%	0.08 nM	19.98%
CC[C@H](C)[C@H](NC(=O)[C@@H]1CCCN1C(=O)[C@H](CCCCN)NC(=O)[C@H](CC(C)C)NC(=O)[C@H](CC(N)=O)NC(=O)[C@H](CO)NC(=O)[C@H](CO)NC(=O)[C@H](CO)NC(=O)[C@H](Cc1c[nH]cn1)NC(=O)[C@H](CCCNC(=N)N)NC(=O)[C@H](CC(C)C)NC(=O)[C@H](Cc1ccccc1)NC(=O)[C@H](CC(=O)O)NC(=O)[C@H](C)NC(=O)[C@H](CC(C)C)NC(=O)[C@H](CCCNC(=N)N)NC(=O)[C@H](CCC(N)=O)NC(=O)[C@@H](NC(=O)[C@H](C)NC(=O)[C@H](C)NC(=O)[C@@H](NC(=O)[C@H](CO)NC(=O)[C@H](CC(C)C)NC(=O)[C@H](CCC(N)=O)NC(=O)[C@H](CO)NC(=O)[C@H](C)NC(=O)CC[C@H](NC(=O)CCCCCCCCCCCCCCCCCCC(=O)O)C(=O)O)[C@@H](C)O)[C@@H](C)O)C(=O)N[C@@H](CC(C)C)C(=O)N1CCC[C@H]1C(=O)N1CCC[C@H]1C(=O)N[C@H](C(=O)N[C@@H](CC(N)=O)C(=O)N[C@H](C(=O)NCC(=O)N[C@@H](CO)C(=O)N[C@@H](CC(N)=O)C(=O)N[C@H](C(=O)N1C[C@H](O)C[C@H]1C(N)=O)[C@@H](C)O)C(C)C)[C@@H](C)O [M48] ({C20 diacid-γGlu}-ASQLSTAATQRLADFLRHSSSNLKPILPPTNVGSNT[Hyp]-NH2)	8.61%	180%	0.05 nM	–
CC[C@H](C)[C@H](NC(=O)[C@@H]1CCCN1C(=O)[C@H](CCCCN)NC(=O)[C@H](CC(C)C)NC(=O)[C@H](CC(N)=O)NC(=O)[C@H](CCC(N)=O)NC(=O)[C@H](CO)NC(=O)[C@H](CO)NC(=O)[C@H](Cc1c[nH]cn1)NC(=O)[C@H](CCCNC(=N)N)NC(=O)[C@H](CC(C)C)NC(=O)[C@H](Cc1ccccc1)NC(=O)[C@H](CC(=O)O)NC(=O)[C@H](C)NC(=O)[C@H](CC(C)C)NC(=O)[C@H](CCCNC(=N)N)NC(=O)[C@H](CCC(N)=O)NC(=O)[C@@H](NC(=O)[C@H](C)NC(=O)[C@H](C)NC(=O)[C@@H](NC(=O)[C@H](CO)NC(=O)[C@H](CC(C)C)NC(=O)[C@H](CCC(N)=O)NC(=O)[C@H](CO)NC(=O)[C@H](C)NC(=O)CC[C@H](NC(=O)CCCCCCCCCCCCCCCCCCC(=O)O)C(=O)O)[C@@H](C)O)[C@@H](C)O)C(=O)N[C@@H](CC(C)C)C(=O)N1CCC[C@H]1C(=O)N1CCC[C@H]1C(=O)N[C@H](C(=O)N[C@@H](CC(N)=O)C(=O)N[C@H](C(=O)NCC(=O)N[C@@H](CO)C(=O)N[C@@H](CC(N)=O)C(=O)N[C@H](C(=O)N1C[C@H](O)C[C@H]1C(N)=O)[C@@H](C)O)C(C)C)[C@@H](C)O [M46] ({C20 diacid-γGlu}-ASQLSTAATQRLADFLRHSSQNLKPILPPTNVGSNT[Hyp]-NH2)	8.69%	150%	0.06 nM	–
CC[C@H](C)[C@H](NC(=O)[C@@H]1CCCN1C(=O)[C@H](CCCCN)NC(=O)[C@H](CC(C)C)NC(=O)[C@H](CC(N)=O)NC(=O)CNC(=O)[C@H](CO)NC(=O)[C@H](CO)NC(=O)[C@H](Cc1c[nH]cn1)NC(=O)[C@H](CCCNC(=N)N)NC(=O)[C@H](CC(C)C)NC(=O)[C@H](Cc1ccccc1)NC(=O)[C@H](CC(=O)O)NC(=O)[C@H](C)NC(=O)[C@H](CC(C)C)NC(=O)[C@H](CCCNC(=N)N)NC(=O)[C@H](CCC(N)=O)NC(=O)[C@@H](NC(=O)[C@H](C)NC(=O)[C@H](C)NC(=O)[C@@H](NC(=O)[C@H](CO)NC(=O)[C@H](CC(C)C)NC(=O)[C@H](CCC(N)=O)NC(=O)[C@H](CO)NC(=O)[C@H](C)NC(=O)CC[C@H](NC(=O)CCCCCCCCCCCCCCCCCCC(=O)O)C(=O)O)[C@@H](C)O)[C@@H](C)O)C(=O)N[C@@H](CC(C)C)C(=O)N1CCC[C@H]1C(=O)N1CCC[C@H]1C(=O)N[C@H](C(=O)N[C@@H](CC(N)=O)C(=O)N[C@H](C(=O)NCC(=O)N[C@@H](CO)C(=O)N[C@@H](CC(N)=O)C(=O)N[C@H](C(=O)N1C[C@H](O)C[C@H]1C(N)=O)[C@@H](C)O)C(C)C)[C@@H](C)O [M51] ({C20 diacid-γGlu}-ASQLSTAATQRLADFLRHSSGNLKPILPPTNVGSNT[Hyp]-NH2)	23.4%	163%	0.08 nM	35.42%
